# From patent US20190119282A1, “IMIDAZOPYRIDAZINES USEFUL AS INHIBITORS OF THE PAR-2 SIGNALING PATHWAY” (Vertex Pharmaceuticals Incorporated, priority 2013, published 2019)
# Tests used:
# [1] = test system: UTP-stimulated Ca2+ response in HT-29 cells; assay: Ca FLIPR TETRA assay, ANTAGONIST mode, stimulation with 0.6 μM UTP; assay type: cell-based, human; conditions: Homo sapiens, HT-29 cells
# Procedure, shortened: (§1)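 Antagonist-mode assay: dye-loaded HT-29 cells, compound 30 min at r.t., then stimulated with final 8 μM SLIGKV, 3.1 U/mL trypsin, 1 U/mL thrombin or 0.6 μM UTP; calcium fluorescence read.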
# [2] = biological target: T1, PAR2 (HT-29 cells, SLIGKV activation) (Homo sapiens, UniProt P55085); assay: Ca FLIPR TETRA assay, ANTAGONIST mode, stimulation with 8 μM SLIGKV; assay type: cell-based; conditions: HT-29 cells
# T1 construct: host or cells: HT-29 cells
# T1 sequence (P55085 26-397): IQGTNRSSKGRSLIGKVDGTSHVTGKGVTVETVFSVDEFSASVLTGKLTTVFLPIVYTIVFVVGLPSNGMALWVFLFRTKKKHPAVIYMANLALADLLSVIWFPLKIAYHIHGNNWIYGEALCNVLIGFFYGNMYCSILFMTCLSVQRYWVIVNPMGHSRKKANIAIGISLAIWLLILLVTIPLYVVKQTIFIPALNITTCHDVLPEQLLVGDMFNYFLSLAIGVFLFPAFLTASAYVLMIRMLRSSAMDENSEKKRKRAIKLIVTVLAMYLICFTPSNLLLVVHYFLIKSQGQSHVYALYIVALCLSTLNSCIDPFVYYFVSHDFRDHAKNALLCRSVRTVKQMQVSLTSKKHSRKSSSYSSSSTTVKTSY
# Procedure, shortened: as §1
# [3] = biological target: T2, PAR2 (HT-29 cells, trypsin activation) (Homo sapiens, UniProt P55085); assay: Ca FLIPR TETRA assay, ANTAGONIST mode, stimulation with 3.1 U/mL trypsin; assay type: cell-based; conditions: HT-29 cells
# T2 construct: host or cells: HT-29 cells
# T2 sequence (P55085 26-397): T1 sequence (P55085 26-397)
# Procedure, shortened: as §1
# [4] = test system: Thrombin-stimulated Ca2+ response in HT-29 cells; assay: Ca FLIPR TETRA assay, ANTAGONIST mode, stimulation with 1 U/mL Thrombin; assay type: cell-based, human; conditions: Homo sapiens, HT-29 cells
# Procedure, shortened: as §1
# [5] = antagonist mode, stimulation with 0.6 μM UTP
# [6] = antagonist mode, stimulation with 8 μM SLIGKV
# [7] = antagonist mode, stimulation with 3.1 U/mL trypsin
# [8] = antagonist mode, stimulation with 1 U/mL Thrombin
# [9] = stimulation with 3.1 U/mL trypsin
# [10] = stimulation with 1 U/mL Thrombin
"IC50 [1, 5] [nM]","IC50 [2, 6] [nM]","IC50 [3, 7] [nM]","IC50 [4, 8] [nM]",IC50 ([1]; stimulation with 0.6 μM UTP) [nM],IC50 ([2]; stimulation with 8 μM SLIGKV) [nM],"IC50 [3, 9] [nM]","IC50 [4, 10] [nM]",Compound,also measured
,,,,9600,2,2,8500,CCc1cc(-c2ccc(F)cc2)nn2cc(C(=O)N3CCN(C(=O)[C@H](O)CC(C)C)CC3(C)C)nc12 [Compound I-167],
> 1000,2.4,3,> 1000,,,,,CC(C)c1cc(-c2ccc(Cl)cc2)nn2cc(C(=O)N3CCNC(=O)C3(C)C)nc12 [Compound I-353],
> 1000,1.7,1.4,> 1000,,,,,Cc1ccc(-c2cc(C(C)C)c3nc(C(=O)N4CCN(C(=O)c5cc(C)n[nH]5)CC4(C)C)cn3n2)cc1 [Compound I-330],
> 1000,3,3,> 1000,,,,,Cc1ccc(-c2cc(C(C)C)c3nc(C(=O)N4CCNC(=O)C4(C)C)cn3n2)cc1F [Compound I-301],
,,,,38000,5700,14000,40000,CC(C)c1cc(-c2ccc(F)cc2)nn2cc(C(=O)N3CCN(C(=O)C(C)(C)N)[C@@H](C)C3)nc12 [Compound I-157],
> 1000,155,250,> 1000,,,,,CC(C)c1cc(-c2ccccc2F)nn2cc(C(=O)N3CCNC(=O)C3(C)C)nc12 [Compound I-479],
,,,,13000,25,210,13000,C#CCCC(=O)N1CCN(C(=O)c2cn3nc(-c4ccc(F)cc4)cc(C(C)C)c3n2)C[C@@H]1C [Compound I-126],
> 1000,525,760,> 1000,,,,,C[C@H]1CN(C(=O)c2cn3nc(-c4ccc(F)cc4)cc(C(C)(C)C)c3n2)C(C)(C)C(=O)N1 [Compound I-226],
> 1000,1.7,2.2,> 1000,,,,,CC(C)(C)c1cc(-c2ccc(F)cc2)nn2cc(C(=O)N3CCN(C(=O)C(C)(N)C(F)(F)F)CC3(C)C)nc12 (stereo not shown) [Compound I-318],
,,,,27000,16,53,23000,CCc1cc(-c2ccc(F)cc2)nn2cc(C(=O)N3CCN(C(=O)[C@H](O)C(C)C)CC3(C)C)nc12 [Compound I-166],
,,,,8000,1,2,7400,CCc1cc(-c2ccc(F)cc2)nn2cc(C(=O)N3CCN(C(=O)[C@H](O)CC(C)(C)C)CC3(C)C)nc12 [Compound I-165],
,,,,10000,4,54,13000,CC(C)c1cc(-c2ccc(F)cc2)nn2cc(C(=O)N3CCN(C(=O)[C@H](O)C(C)(C)C)[C@@H](C)C3)nc12 [Compound I-152],
950,0.4,0.6,760,,,,,CC(C)(C)c1cc(-c2ccc(F)cc2)nn2cc(C(=O)N3CCN(C(=O)[C@H]4C[C@@](C)(O)C4)CC3(C)C)nc12 [Compound I-319],
> 1000,0.8,0.6,> 1000,,,,,Cc1cc(C(=O)N2CCN(C(=O)c3cn4nc(-c5ccc(C)c(F)c5)cc(C(C)C)c4n3)C(C)(C)C2)[nH]n1 [Compound I-335],
,,,,19000,7,15,20000,CC(C)c1cc(-c2ccc(F)cc2)nn2cc(C(=O)N3CCN(C(=O)[C@H](O)C(C)C)[C@@H](C)C3)nc12 [Compound I-111],
> 1000,9.1,12.7,300,,,,,CC(C)(C)c1cc(-c2ccc(F)cc2)nn2cc(C(=O)N3CCN(C4(CO)CC4)C(=O)C3(C)C)nc12 [Compound I-297],
> 1000,0.8,0.7,> 1000,,,,,CC(C)(C)c1cc(-c2ccc(Cl)cc2)nn2cc(C(=O)N3CCN(C(=O)c4ccn[nH]4)CC3(C)C)nc12 [Compound I-435],
> 1000,4.5,5.6,> 1000,,,,,Cc1nc(C(=O)N2CCN(C(=O)c3cn4nc(-c5ccc(C(F)(F)F)cc5)cc(C(C)C)c4n3)C(C)(C)C2)c[nH]1 [Compound I-372],

# Second part, the molecule before the results:
Compound,"IC50 [1, 5] [nM]","IC50 [2, 6] [nM]","IC50 [3, 7] [nM]","IC50 [4, 8] [nM]",IC50 ([1]; stimulation with 0.6 μM UTP) [nM],IC50 ([2]; stimulation with 8 μM SLIGKV) [nM],"IC50 [3, 9] [nM]","IC50 [4, 10] [nM]",also measured
Cc1n[nH]c(C(=O)N2CCN(C(=O)c3cn4nc(-c5ccc(F)c(C)c5)cc(C(C)(C)C)c4n3)C(C)(C)C2)n1 [Compound I-414],> 1000,1,1.3,> 1000,,,,,
"CC1(C)CN(C(=O)C2(O)CCC2)CCN1C(=O)c1cn2nc(-c3ccc(F)cc3)cc(C3CC3)c2n1 [Compound I-21, [8-cyclopropyl-6-(4-fluorophenyl)imidazo[1,2-b]pyridazin-2-yl]-[4-(1-hydroxycyclobutanecarbonyl)-2,2-dimethyl-piperazin-1-yl]methanone]",,,,,64000,19,29,> 50000,
CC(C)(C)c1cc(-c2ccc(F)c(F)c2)nn2cc(C(=O)N3CCNC(=O)C3(C)C)nc12 [Compound I-352],> 1000,1.2,1.5,> 1000,,,,,
CC(C)(C)C1CC(c2ccc(F)cc2)=Nn2cc(C(=O)N3CCNC(=O)C3(C)C)nc21 (stereo not shown) [Compound I-446],> 1000,56,104,> 1000,,,,,
O=C(c1cn2nc(-c3ccc(F)cc3)cc(C(F)(F)F)c2n1)N1CCN(CCn2ccnc2)CC1 [Compound I-56],,,,,> 50000,23000,> 50000,> 50000,
CC(C)(C)c1cc(-c2ccc(Cl)cc2)nn2cc(C(=O)N3CCN(C(=O)c4ccccn4)CC3(C)C)nc12 [Compound I-444],> 1000,0.8,1.3,> 1000,,,,,
"CC1(C)CN(C(=O)C2(O)CCC2)CCN1C(=O)c1cn2nc(-c3ccc(F)cc3)cc(C(F)(F)F)c2n1 [Compound I-37, [6-(4-Fluorophenyl)-8-(trifluoromethyl)imidazo[1,2-b]pyridazin-2-yl]-[4-(1-hydroxycyclobutanecarbonyl)-2,2-dimethyl-piperazin-1-yl]methanone]",,,,,> 50000,200,250,> 50000,
CC(C)c1cc(-c2ccc(F)cc2F)nn2cc(C(=O)N3CCNC(=O)C3(C)C)nc12 [Compound I-477],> 1000,43,93,> 1000,,,,,
"CC(C)c1cc(C2=CCCC2)nn2cc(C(=O)N3CCN(C(=O)C4(O)CCC4)CC3(C)C)nc12 [Compound I-43, [6-(Cyclopenten-1-yl)-8-isopropyl-imidazo[1,2-b]pyridazin-2-yl]-[4-(1-hydroxycyclobutanecarbonyl)-2,2-dimethyl-piperazin-1-yl]methanone]",,,,,31000,480,1100,27000,
Cc1ccc(-c2cc(C(C)(C)C)c3nc(C(=O)N4CCNC(=O)C4(C)C)cn3n2)cc1F [Compound I-298],> 1000,2.3,1.8,> 1000,,,,,
Cc1n[nH]c(C(=O)N2CCN(C(=O)c3cn4nc(-c5ccc(C(F)(F)F)cc5)cc(C(C)(C)C)c4n3)C(C)(C)C2)n1 [Compound I-403],> 1000,1,1.5,> 1000,,,,,
CC(C)(C)c1cc(-c2ccc(Cl)c(F)c2)nn2cc(C(=O)N3CCN(C(=O)c4ncccn4)CC3(C)C)nc12 [Compound I-456],> 1000,0.5,0.7,> 1000,,,,,
CC(C)(C)c1cc(-c2ccc(F)c(Cl)c2)nn2cc(C(=O)N3CCN(C(=O)c4ccccn4)CC3(C)C)nc12 [Compound I-458],> 1000,1.3,2.1,> 1000,,,,,
Cc1cccc(-c2cc(C(C)(C)C)c3nc(C(=O)N4CCN(C(=O)c5c[nH]c(C)n5)CC4(C)C)cn3n2)c1 [Compound I-407],> 1000,5.6,5.1,> 1000,,,,,
"CC1(c2cc(-c3ccc(F)cc3)nn3cc(C(=O)N4CCNC(=O)C4(C)C)nc23)CC1 [Compound I-30, 4-[6-(4-fluorophenyl)-8-(1-methylcyclopropyl)imidazo[1,2-b]pyridazine-2-carbonyl]-3,3-dimethyl-piperazin-2-one]",,,,,26000,2,3,25000,
CC(C)(C)c1cc(-c2ccc(F)cc2)nn2cc(C(=O)N3CCN(C(=O)/C=C/C(=O)O)CC3(C)C)nc12 [Compound I-558],,,,,,,,,"IC50 ([1]; antagonist mode, 0.6 μM UTP): > 1000 nM; IC50 ([2]; antagonist mode, 8 μM SLIGKV): 18.5 nM; IC50 ([3]; antagonist mode, 3.1 U/mL trypsin): 43.5 nM; IC50 ([4]; antagonist mode, 1 U/mL Thrombin): > 1000 nM"
